# Data as given in article PMC4873483 (Experimental Animals, 2015).
# Like-named read-outs stand apart in the source and are kept apart here.
# Tests used:
# [1] = repeated oral administration at a saturating dose, rats and dogs; cited from earlier work
# [2] = Pharmacokinetic study following repeated s.c. administration of 1-MT; assay type: in vivo, domestic pigs (Sus scrofa domestica)
# [3] = Pharmacokinetic study following a single s.c. administration of 1-MT; assay type: in vivo, domestic pigs (Sus scrofa domestica); details: for Cmax: means ± standard deviation
# [4] = system: plasma proteins; details: cited from earlier work
# [5] = given by mouth over a time frame of up to 4 weeks; cited from earlier work
# [6] = assay type: in vivo, domestic pigs (Sus scrofa domestica)
# [7] = mice, within 48 h post dose; cited from earlier work
# [8] = 12 h after the final of five daily s.c. injections, n=6
# [9] = German Landrace, pig, plasma, sc, 1 g
# [10] = one-compartment model fitted by numerical simulation to single-dose plasma data
# [11] = single s.c. administration of 1 g 1-MT, n=3
# [12] = endogenous TRP, 12 h after the final s.c. injection of 1-MT
# [13] = endogenous TRP, all four animals
structure (smiles),measurement,setting,value
"Cn1cc(C[C@H](N)C(=O)O)c2ccccc21 [1-MT, 1-methyl-L-tryptophan]",tolerability,[1],"well tolerated, with no toxic effects"
same,steady state of plasma trough concentrations,[2]; 1 g 1-MT s.c. daily for five days,steady state conditions of trough values were reached after two subcutaneous administrations
same,1-MT concentrations in peripheral tissues,[2]; 12 h after the final of five daily s.c. injections,48–152 nmol/g wet tissue weight
same,1-MT concentration in kidney and liver,[2]; [8],greater than 100 nmol/g wet tissue weight
same,1-MT concentration in the different brain areas,[2]; [8],lower than 20 nmol/g wet tissue weight
same,concentration at 12 h,[2]; [9],38 µM
same,share of 1-MT accumulated in organs derived from contamination with blood,[2]; estimated from plasma 1-MT and organ blood volumes (32-408 µl/g),less than 5%
same,AUC(0-t),[3]; [9],960 ± 346 µM·h
same,Tmax,[3]; [9],12 h
same,concentration at 24 h,[3]; [9],21.1 ± 5.3 µM
same,Cmax,"[3]; German Landrace, pig, plasma, sc, 1 g, Cmax, maximum concentration in pigs plasma, single s.c. administration of 1 g 1-MT, n=3",29.1 ± 8 µM
same,half-life,"[3]; German Landrace, pig, plasma, sc, 1 g, T1/2, half-life, single s.c. administration of 1 g 1-MT, n=3",10.9 ± 2 h
same,kabsorption,[3]; [10],0.08 min⁻¹
same,kelimination,[3]; [10],0.001 min⁻¹
same,krelease,[3]; [10],0.0018 min⁻¹
same,Cmax,"[3]; read-out: Cmax, maximum concentration in pigs plasma, single s.c. administration of 1 g 1-MT, n=3",29.1 ± 7.97 µM
same,"T1/2, half-life",[3]; [11],10.93 ± 2.03 h
same,"k, first-order kinetic rate constant",[3]; [11],0.065 ± 0.011 h⁻¹
same,bound to plasma proteins,[4],less than 15%
same,maximum tolerated dose,[5],1.6 g/day
same,daily feed uptake,"[6]; five daily s.c. administrations of 1 g 1-MT, not different from MYR (P = 0.97)",0.66 ± 0.02 kg
same,fever response,[6]; five-day period of 1-MT administration,no fever response
same,health status after a single s.c. injection,"[6]; single s.c. 1 g 1-MT, visual inspection twice daily",No impairment of the health status could be observed
same,excreted via feces,[7],13%
same,excreted via urine,[7],35%
"N[C@@H](Cc1c[nH]c2ccccc12)C(=O)O [TRP, tryptophan]","TRP concentration in kidney, liver, adrenal gland, spleen, and thyroid gland",[2]; [12],greater than 40 nmol/g wet tissue weight
same,TRP concentration in the other tissues,[2]; [12],lower than 30 nmol/g wet tissue
same,maximum TRP concentration in plasma over the 7-day period,[3]; [13],37.7 µM
same,minimum TRP concentration in plasma over the 7-day period,[3]; [13],13.1 µM
same,average TRP concentration in plasma over the entire 7-day period,"[3]; endogenous TRP, all four animals, after single s.c. 1-MT or MYR",22.8 ± 5.1 µM
